Measured values taken from US11708338B2, “Substituted phenyl sulfonyl phenyl triazole thiones and uses thereof” (Neuropore Therapies, Inc., priority 2017, dated 2023).

What was measured:
Type in all cases: in vivo, mouse
[1] = tested on: total alpha-synuclein (ASYN); experiment: IHC quantification of total alpha-synuclein deposits in brain, 1 month administration study; details: for reduction of total alpha-synuclein level in cortex as compared to vehicle control: L61 ASYN transgenic mice, FIG. 7A
Method: Multiple in vivo administration studies of Compound 1 were carried out in the Line 61 (L61) mThy1-alpha-synuclein transgenic mouse model of Parkinson's disease (PD). The mThy1-alpha-synuclein transgenic mouse model overexpresses wild-type human ASYN under the Thy-1 promoter studies (commonly referred to as Line 61 transgenic mice; Rockenstein et al., 2002). This transgenic mouse develops extensive accumulation of alpha-synuclein (ASYN) in areas relevant to PD (Rockenstein et al., 2002; Chesselet et al., 2012; Games et al., 2013), neurodegeneration including dopaminergic neurodegeneration, reduced dopamine (DA) and TH loss in the striatum (Masliah et al., 2000; Lam et al., 2011), and motor deficits (Fleming et al., 2004). Male transgenic and non-transgenic littermates (3-3.5 mo) were used for all in vivo studies presented here.
(§1) Alpha-synuclein (ASYN) is a neuronal protein whose dysregulation has been implicated in the pathogenesis of PD. The effects of Compound 1 on alpha-synuclein aggregation were assessed in both L61 ASYN transgenic and non-transgenic mice in a 1 month administration study. L61 ASYN transgenic mice (36 total mice, n=8-11 mice per treatment group) were injected (i.p.) with 1, 5, or 10 mg/kg of Compound 1 or a vehicle control (5% DMSO+20% Cremphor EL+0.9% normal saline) per day for 1 month. Non-transgenic mice (18 total mice, n=8-11 mice per treatment group) were used as a control and were injected daily (i.p.) with 10 mg/kg of Compound 1 or a vehicle control (5% DMSO+20% Cremphor EL+0.9% normal saline) per day for 1 month. At the end of one month, the mice were sacrificed, and immunohistochemical (IHC) detection of total alpha-synuclein deposits, insoluble alpha-synuclein deposits (PK+resistant), microtubule-associated protein 1A/1B-light chain 3 (LC3), and monomeric alpha-synuclein levels were assessed in the harvested brain tissues.
The quantification and IHC staining of total alpha-synuclein were performed using known techniques (Rockenstein et al., J Neurosci Res. 2002, 68(5):568-78; Tanji et al., Acta Neuropathol. 2010, 120, 145-154; Nuber et al., Brain. 2013, February; 136(Pt 2):412-32).

[2] = tested on: insoluble alpha-synuclein deposits (PK+resistant); experiment: IHC quantification of insoluble (PK+resistant) alpha-synuclein deposits in brain, 1 month administration study; details: L61 ASYN transgenic mice, FIG. 9A
Method: Multiple in vivo administration studies of Compound 1 were carried out in the Line 61 (L61) mThy1-alpha-synuclein transgenic mouse model of Parkinson's disease (PD). The mThy1-alpha-synuclein transgenic mouse model overexpresses wild-type human ASYN under the Thy-1 promoter studies (commonly referred to as Line 61 transgenic mice; Rockenstein et al., 2002). […]
Alpha-synuclein (ASYN) is a neuronal protein whose dysregulation has been implicated in the pathogenesis of PD. The effects of Compound 1 on alpha-synuclein aggregation were assessed in both L61 ASYN transgenic and non-transgenic mice in a 1 month administration study. […] At the end of one month, the mice were sacrificed, and immunohistochemical (IHC) detection of total alpha-synuclein deposits, insoluble alpha-synuclein deposits (PK+resistant), microtubule-associated protein 1A/1B-light chain 3 (LC3), and monomeric alpha-synuclein levels were assessed in the harvested brain tissues.
The quantification and IHC staining of PK-resistant alpha-synuclein were performed using known techniques (Rockenstein et al., J Neurosci Res. 2002, 68(5):568-78; Tanji et al., Acta Neuropathol. 2010, 120, 145-154; Nuber et al., Brain. 2013, February; 136(Pt 2):412-32).

L61 ASYN transgenic mice = experiment: Grip strength evaluation (motor performance), 3 month administration study; details: 5 mg/kg and 10 mg/kg i.p. daily, after 70 days of treatment
Method: The effects of Compound 1 on the motor performance deficits (grip strength) and a marker of neuroinflammation (Translocator Protein (18 kDa)) were assessed in both L61 ASYN transgenic and non-transgenic mice in a 3 month administration study.
Compound 1 was injected into L61 ASYN transgenic mice and non-transgenic control mice (i.p., once daily) at doses of 5 and 10 mg/kg for 3 months (79 total mice, n=14-17 mice per treatment group). The vehicle control consisted of a solution containing 5% DMSO+20% Cremphor EL+0.9% normal saline. The baseline grip strength of mice was evaluated prior to starting treatments for the 3 month study, and then re-evaluated following 70 days of treatment with vehicle or Compound 1 (5 or 10 mg/kg, i.p. daily).
At baseline, there was a statistically significant grip strength deficit in transgenic mice compared to non-transgenic mice. Treatment with Compound 1 (5 & 10 mg/kg) improved L61 ASYN transgenic grip strength deficits.

[3] = tested on: microtubule-associated protein 1A/1B-light chain 3 (LC3); experiment: LC3 immunolabeling (IHC) in brain, 1 month administration study; details: L61 ASYN transgenic mice, 1, 5 or 10 mg/kg per day i.p.
Method: as §1

[4] = L61 ASYN transgenic mice, 1, 5 or 10 mg/kg per day i.p.

Question: What does the source list for `O=S(=O)(c1ccc(-n2cn[nH]c2=S)cc1)c1ccc(Cl)c(C(F)(F)F)c1` [Compound 1, 4-(4-((4-chloro-3-(trifluoromethyl)phenyl)sulfonyl)phenyl)-2,4-dihydro-3H-1,2,4-triazole-3-thione]?
Answer: reduction of total alpha-synuclein level in cortex as compared to vehicle control ([1]; 1 mg/kg per day i.p.): 13%; reduction of total alpha-synuclein level in cortex as compared to vehicle control ([1]; 5 mg/kg per day i.p.): 32%; reduction of total alpha-synuclein level in cortex as compared to vehicle control ([1]; 10 mg/kg per day i.p.): 38%; total ASYN in the neuropil of cortex vs vehicle control [1, 4]: reduced; total ASYN in the neuropil of hippocampus vs vehicle control [1, 4]: reduced; total ASYN in the neuropil of striatum vs vehicle control [1, 4]: reduced; reduction of PK-resistant alpha synuclein levels in cortex as compared to vehicle-treated mice ([2]; 5 mg/kg daily i.p.): 37%; reduction of PK-resistant alpha synuclein levels in cortex as compared to vehicle-treated mice ([2]; 10 mg/kg daily i.p.): 36%; grip strength vs vehicle-treated transgenic mice (L61 ASYN transgenic mice): higher grip strengths than vehicle-treated transgenic mice in a statistically significant manner; levels of LC3 immunolabeling in cortex [3]: increased; levels of LC3 immunolabeling in hippocampus (increase) [3]: not; levels of LC3 immunolabeling in striatum [3]: increased
